In ChEMBL document CHEMBL1133319, “Eryloside F, a novel penasterol disaccharide possessing potent thrombin receptor antagonist activity” (Bioorg Med Chem Lett, 2000) one finds IC50 data, which are given here for one molecule.

Assay [1] is filed under the species Homo sapiens. Nature of the assay: Inhibitory concentration of compound was determined against SFLLRN (3 uM) induced platelet aggregation. The class given is functional.
The species named for assay [2] is Homo sapiens. The assay can be described thus: Inhibitory concentration of compound was determined against U-46619 (3 uM) induced platelet aggregation. The class given is functional.

In brackets after ≈: the same amount, converted by molar mass.

Consider `CC(C)=CCC[C@@H](C)[C@H]1CC[C@@]2(C(=O)O)C3=C(CC[C@]12C)[C@@]1(C)CC[C@H](O[C@@H]2OC[C@H](O)[C@H](O)[C@H]2O[C@@H]2O[C@H](CO)[C@H](O)[C@H](O)[C@H]2O)C(C)(C)[C@@H]1CC3` [ERYLOSIDE F], for which the values for the IC50 in the assay filed under Homo sapiens [1] and in the assay filed under Homo sapiens [2] were 0.3 µg/mL (≈ 0.399 µM) and 1.7 µg/mL (≈ 2.26 µM), respectively.
